Counter-ions that a name gives are not always drawn. Like-named read-outs stand apart in the source and are kept apart here.
Experiments:
[1] = test system: luciferase-transfected Leishmania donovani; test: Anti-leishmanial efficacy (EC50) in the ex vivo splenic explant model; type: cell-based
Description: To establish the plate assay for drug screening, the spleens from 2 infected hamsters were aseptically removed and placed in a Petri dish containing 5 mL of Collagenase D (Roche) at 2 mg/mL of buffer (10 mM Hepes pH 7.4, 150 mM NaCl, 5 mM KCl, 1 mM MgCl2, 1.8 mM CaCl2). The spleen was infiltrated by injection with approximately 2 mL of Collagenase solution, the tissue was cut into small pieces using sharp scissors, and incubated for 20 minutes at 37°C. The cell suspension and remaining tissue fragments were gently passed through a 100 µm cell strainer (B–D) to obtain a single cell suspension, which was washed twice by centrifugation (500 g for 7 min at 4°C) and re-suspended in culture medium composed of DMEM (Gibco), 5% FBS, 1 mM Sodium pyruvate (Gibco), 1X MEM amino acids solution (Sigma), 0.02% v/v/EDTA, 10 mM HEPES buffer (Cellgro) and 100 IU/mL Penicillin/100 […] Streptomycin solution (Cellgro).
The anti-leishmanial efficacy of the compounds was determined using the splenic explant model in a 96-well plate format. […] Because variation in the parasite burden between different explant cultures was expected, the concentration of cells used in each experiment was adjusted to give approximately 100 counts by luminometry (equivalent to ∼240,000 parasites). The number of surviving parasites was determined by luminometry as described above.

[2] = Cell toxicity (CC50) in the HepG2 cell line, CellTiter-Glo; type: cell-based, human; details: human
Description: After 24 hours of culture at 37°C the number of viable cells was determined by quantification of the ATP present in the cell using the CellTiter-Glo luminescent Cell Viability Assay (Promega).

[3] = Leishmania donovani, 48 h, ex vivo splenic explant, 48 h, luminometry, at least two experiments, compound from screened library, read-out: Ex vivo model EC50 Mean
[4] = HepG2 cells, HepG2 cell line, 24 h, ATP luminescence, compound from screened library, read-out: HepG2 CC50 Mean
[5] = Leishmania donovani, ex vivo splenic explant, 48 h, luminometry, at least two experiments, compound from screened library, read-out: Ex vivo model EC50 Mean
[6] = HepG2 cell line, 24 h, ATP luminescence, compound from screened library, read-out: HepG2 CC50 Mean
[7] = Leishmania donovani, 50% reduction in parasite counts in the ex vivo model, read-out: EC50 Mean (Table S2)
[8] = 50% reduction in parasite counts in the ex vivo model, read-out: EC50 Mean (Table S2)

CC(C)(C)NCCC(O)c1cc(C(F)(F)F)nc2c(C(F)(F)F)cccc12 (stereo not shown) [1-(2,8-bis(trifluoromethyl)-4-quinolinyl)-3-(tert-butylamino)-1-propanol]
EC50 [1, 3]: 7.9 µM | CC50 at 24 h [2, 4]: 44.2 µM

CCN(CC)CCN1C(=O)c2cccc3cc(N)cc(c23)C1=O [1H-Benz[de]isoquinoline-1,3(2H)-dione, 5-amino-2-[2-(diethylamino)ethyl]-]
EC50 [1, 5]: 8.4 µM | CC50 [2, 6]: 69.3 µM

COc1cc(O)c(C(=O)/C=C/c2ccc(O)c(OC)c2)c(OC)c1 [2',4-dihydroxy-3,4',6'-trimethoxychalcone]
EC50 [1, 3]: 14.6 µM | CC50 at 24 h [2, 4]: 106 µM

CN(C)CCCNc1cc(O)c2c(c1O)C(=O)c1ccccc1C2=O [2-((3-(dimethylamino)propyl)amino)-1,4-dihydroxyanthra-9,10-quinone]
EC50 [1, 5]: 6.7 µM | CC50 [2, 6]: 75.1 µM

CSc1ccc2c(c1)c(CCN)c(C)n2Cc1ccccc1Cl [2-[1-[(2-chlorophenyl)methyl]-2-methyl-5-methylsulfanyl-indol-3-yl]ethanamine]
EC50 [1, 5]: 9.4 µM | CC50 [2, 6]: 71.8 µM

CN(C)CCCN1CCC2(CCC(C(C)(C)C)CC2)CC1 [3-(9-tert-butyl-3-azaspiro[5.5]undec-3-yl)-N,N-dimethyl-1-propanamine]
EC50 [1, 3]: 6.1 µM | CC50 at 24 h [2, 4]: 61.8 µM

CN(C)CCCN1c2ccccc2Sc2ccc3ccccc3c21 [3-(12H-benzo[a]phenothiazin-12-yl)-N,N-dimethyl-1-propanamine]
EC50 [1, 5]: 11.5 µM | CC50 [2, 6]: 66.6 µM

CCC1=C(CC2NCCc3ccccc32)CC2c3cc(OC)c(OC)cc3CCN2C1 (stereo not shown) [3-ethyl-9,10-dimethoxy-2-(1,2,3,4-tetrahydro-isoquinolin-1-ylmethyl)-1,6,7,11b-tetrahydro-4H-pyrido(2,1-a)isoquinoline]
EC50 [1, 5]: 2.7 µM | CC50 [2, 6]: 24 µM

Cc1cc(N2CCCCC2)nc2ccc(Cc3ccc4nc(N5CCCCC5)cc(C)c4c3)cc12 [4-methyl-6-((4-methyl-2-(1-piperidinyl)-6-quinolinyl)methyl)-2-(1-piperidinyl)quinoline]
EC50 [1, 5]: 18.4 µM | CC50 at 24 h [2]: 109 µM

OC1(c2ccccc2)c2ccccc2NC2=NCCN21 (stereo not shown) [5-phenyl-3,10-dihydro-2H-imidazo[2,1-b]quinazolin-5-ol]
EC50 [1, 3]: 12 µM | CC50 at 24 h [2, 4]: 107 µM

COc1ccc(-c2cc(=O)c3cc(OC)ccc3o2)cc1 [6,4'-dimethoxyflavone]
EC50 [1, 3]: 17.9 µM | CC50 at 24 h [2, 4]: 95 µM

COc1cc(NCCC2CCCCN2)c2ncccc2c1 (stereo not shown) [6-methoxy-N-(2-(2-piperidinyl)ethyl)-8-quinolinamine]
EC50 [1, 5]: 5.1 µM | CC50 at 24 h [2]: 108 µM

CN(C)CCCN1c2ccc(O)cc2Sc2ccc(Cl)cc21 [7-Hydroxychlorpromazine]
EC50 [1, 5]: 11 µM | CC50 [2, 6]: 60.1 µM

Clc1ccc2c(NC3CCC(N4CCCCC4)CC3)ccnc2c1 (stereo not shown) [7-chloro-N-(4-(1-piperidinyl)cyclohexyl)-4-quinolinamine]
EC50 [1, 3]: 6.3 µM | CC50 at 24 h [2, 4]: 67.4 µM

CN(C)CC1CCC2=C(C1=O)C(c1ccc(Cl)c(Cl)c1)C1=C(CCC(CN(C)C)C1=O)O2 (stereo not shown) [9-(3,4-Dichlorophenyl)-2,7-bis(dimethylaminomethyl)-3,4,5,6,7,9-hexahydro-2H-xanthene-1,8-dione]
EC50 [1, 3]: 9.4 µM | CC50 at 24 h [2, 4]: 49.8 µM

CC(NCCN(C)C)C1CC[C@H]2[C@@H]3CCc4cc(O)ccc4[C@H]3CC[C@]12C (stereo partly shown) [17-(1-((2-(dimethylamino)ethyl)amino)ethyl)estra-1,3,5(10)-trien-3-ol]
EC50 [1, 3]: 6.2 µM | CC50 at 24 h [2]: 51.6 µM

C[C@]12CC[C@H]3[C@@H](CC=C4C[C@@H](O)CC[C@@]43C)[C@@H]1CC[C@@H]2N(CCO)CCO [17beta-[Bis(2-hydroxyethyl)amino]androst-5-en-3beta-ol]
EC50 [1, 3]: 7.5 µM | CC50 at 24 h [2, 4]: 88.5 µM

CC[C@@]1(O)C[C@H](O[C@H]2C[C@H](N(C)C)[C@H](O)[C@H](C)O2)c2c(cc3c(c2O)C(=O)c2c(O)cccc2C3=O)[C@H]1C(=O)OC [Aklavine Hydrochloride]
EC50 [1, 5]: 0.7 µM | CC50 [2, 6]: 14 µM

COc1ccc2cc1Oc1ccc(cc1)C[C@H]1c3c(cc4c(c3Oc3cc5c(cc3OC)CCN(C)[C@@H]5C2)OCO4)CCN1C [Cepharanthine]
EC50 [1, 3]: 11.4 µM | CC50 at 24 h [2]: 86.3 µM

CCCCCCCCCCCCCCCC[N+](C)(C)C [Cetrimonium Bromide]
EC50 [1, 5]: 6.1 µM | CC50 [2, 6]: 42.9 µM

[H]/N=C(\N/C(=N/[H])NCCCCCCNC(=N)NC(=N)Nc1ccc(Cl)cc1)Nc1ccc(Cl)cc1 [Chlorhexidine]
EC50 [1, 5]: 10.3 µM | CC50 at 24 h [2, 4]: 60.5 µM

Cc1cc(O)ccc1Cl [Chlorocresol]
EC50 [1, 7]: 8.02 µM | EC50 [1, 5]: 8 µM | CC50 at 24 h [2, 4]: 138 µM

CN(C)CCCN1c2ccccc2Sc2ccc(Cl)cc21 [Chlorpromazine]
EC50 [1, 7]: 15.1 µM | CC50 at 24 h [2]: 96.1 µM

Oc1c(I)cc(Cl)c2cccnc12 [Clioquinol]
EC50 [1, 5]: 11.3 µM | CC50 at 24 h [2, 4]: 60 µM

Oc1ccc(Cl)c2cccnc12 [Cloxyquin]
CC50 at 24 h [2, 4]: 94.8 µM

C=C1C(=O)O[C@H]2C[C@@H]1C(OC(C)=O)C/C(C)=C/CC/C(C)=C/CC[C@@]2(C)O (stereo partly shown) [Crassin Acetate]
EC50 [1, 3]: 7.7 µM | CC50 at 24 h [2, 4]: 41.1 µM

C=C1C(=O)O[C@H]2C[C@@H]1[C@@H](OC(C)=O)C/C(C)=C/CC/C(C)=C\CC[C@@]2(C)O [Crassin]
EC50 [1, 3]: 8.9 µM | CC50 at 24 h [2, 4]: 51.6 µM

C[C@@H]1CC[C@@]2(OC1)O[C@H]1[C@@H](O)[C@H]3[C@@H]4CC[C@H]5C[C@@H](O[C@@H]6O[C@H](CO)[C@H](O[C@@H]7O[C@H](CO)[C@@H](O)[C@H](O[C@@H]8OC[C@@H](O)[C@H](O)[C@H]8O)[C@H]7O[C@@H]7O[C@H](CO)[C@H](O)[C@H](O[C@@H]8O[C@H](CO)[C@@H](O)[C@H](O)[C@H]8O)[C@H]7O)[C@H](O)[C@H]6O)[C@H](O)C[C@]5(C)[C@H]4CC[C@]3(C)[C@H]1[C@@H]2C [Digitonin]
EC50 [1, 3]: 8.2 µM | CC50 [2, 6]: 42.4 µM

Cc1c2ccncc2c(C)c2c1[nH]c1ccccc12 [Ellipticine]
EC50 [1, 3]: 2.4 µM | CC50 [2]: 30.7 µM

Cc1nccc2c1[nH]c1cc(O)ccc12 [Harmol Hydrochloride]
EC50 [1, 5]: 11.2 µM | CC50 [2, 6]: 60.2 µM

Oc1c(Cl)cc(Cl)c(Cl)c1Cc1c(O)c(Cl)cc(Cl)c1Cl [Hexachlorophene]
EC50 ([1]; Leishmania donovani, 48 h, read-out: Ex vivo model EC50 Mean): 13.6 µM

CC[n+]1c(-c2ccccc2)c2cc(N)ccc2c2ccc(N)cc21 [Homidium Bromide]
EC50 [1, 7]: 11.9 µM | EC50 [1, 5]: 11.9 µM | CC50 [2, 6]: 58.8 µM

CNCCCC12CCC(c3ccccc31)c1ccccc12 [Maprotiline Hydrochloride]
CC50 at 24 h [2]: 57.9 µM

Clc1ccc2c(NCCNC3CCCCC3)ccnc2c1 [N1-(7-chloro-4-quinolinyl)-N2-cyclohexyl-1,2-ethanediamine]
EC50 [1, 3]: 3.9 µM | CC50 at 24 h [2, 4]: 46.2 µM

CC(C)=CCNc1ncnc2nc[nH]c12 [N6-Isopentenyladenine]
EC50 [1, 5]: 20 µM | CC50 [2]: 225 µM

CN(C)CCCNc1c2c(nc3ccc(Cl)cc13)CCCC2 [N-(7-chloro-1,2,3,4-tetrahydroacridin-9-yl)-N',N'-dimethyl-propane-1,3-diamine]
EC50 [1, 5]: 6.4 µM | CC50 [2, 6]: 58.8 µM

COc1cc2ccccc2c2cc([N+](=O)[O-])oc12 [Naphtho(2,1-b)furan, 4-methoxy-2-nitro-]
EC50 [1, 3]: 6.8 µM | CC50 at 24 h [2]: 64.3 µM

CC[C@@H](C(=O)O)[C@@H]1O[C@@H]([C@@H](C)[C@H](O)[C@H](C)C(=O)[C@H](CC)[C@H]2O[C@]3(C=C[C@@H](O)[C@]4(CC[C@@](C)([C@H]5CC[C@](O)(CC)[C@H](C)O5)O4)O3)[C@H](C)C[C@@H]2C)[C@@H](C)C[C@@H]1C [Narasin]
EC50 [1, 3]: 13.3 µM | EC50 [1, 7]: 13.3 µM | CC50 at 24 h [2]: 73 µM

CN[C@H]1CC[C@@H](c2ccc(Cl)c(Cl)c2)c2ccccc21 [Sertraline Hydrochloride]
CC50 at 24 h [2]: 82.5 µM

C[C@@H]1[C@H](O)[C@@H](C)/C=C/C=C/C=C/C=C/C=C/C=C/C=C/[C@H](O[C@@H]2O[C@H](C)[C@@H](O)[C@H](N)[C@@H]2O)C[C@@H]2O[C@](O)(C[C@@H](O)C[C@@H](O)[C@H](O)CC[C@@H](O)C[C@@H](O)CC(=O)O[C@H]1C)C[C@H](O)[C@H]2C(=O)O [amphotericin B deoxycholate]
EC50 ([1]; Leishmania donovani, ex vivo model, freshly solubilized compound from commercial source, read-out: EC50): 0.24 ± 0.02 µM

Monensin Sodium
EC50 [1, 8]: 2.44 µM | EC50 ([1]; ex vivo splenic explant, 48 h, luminometry, at least two experiments, compound from screened library, read-out: Ex vivo model EC50 Mean): 2.4 µM

Neomycin sulfate
EC50 [1, 8]: 6.72 µM | Activity in the ex vivo system (screen or EC50 determination) ([1]; transgenic L. donovani, ex vivo system): identified as a compound with activity

— PMC3039689, “Identification of Small Molecule Lead Compounds for Visceral Leishmaniasis Using a Novel Ex Vivo Splenic Explant Model System” (PLoS Neglected Tropical Diseases, 2011)
